Data on 19 molecules can be found in patent US8993282B2, “Carotenoid fermentation method” (JX Nippon Oil & Energy Corporation, priority 2008, dated 2015).

The subject of this test is Paracoccus carotinifaciens strain E-396 (FERM BP-4283). The test is described as follows: Amino acid supplementation (20 amino acids), test tube culture, carotenoid by HPLC and growth by OD610. Type of test: cell-based. As to conditions: amino acid at 1.0 g/L; for effect on the production of carotenoid pigments: versus tube with no amino acid; for Astaxanthin / Total carotenoid: culture solution; for Astaxanthin / Total carotenoid / OD610: 28° C. for 4 days; for OD610: microbial cell growth, absorbance at 610 nm. As for the experimental part:
In the examples, carotenoids were quantified by high performance liquid chromatography (HPLC) as follows.
Two columns of Wakosil-II 5 SIL-100 (φ4.6×250 mm) (Wako Pure Chemical Industries, Ltd., Japan) were connected to each other for use as a column. Elution was performed by flowing an n-hexane-tetrahydrofuran-methanol mixed solution (40:20:1), which was a mobile phase, at a flow rate of 1.0 mL/minute at a constant temperature around room temperature. The measurement was performed as follows. Samples were each dissolved in tetrahydrofuran and then diluted 100-fold with the mobile phase. Each dilution was injected in a volume of 20 μL. The column eluate was detected at a wavelength of 470 nm. As a reference for quantification, astaxanthin (SIGMA, Cat. No. A9335) was used. The astaxanthin concentration of the reference solution was determined using the following equation after measuring the absorbance (A) of the reference solution at 477 nm and the area percentage % (B) of the astaxanthin peak at the time of HPLC analysis under the above conditions. Astaxanthin concentration (mg/L)=A/2150×B×100
A medium of the following composition (sucrose 30 g/L, corn steep liquor 30 g/L, potassium dihydrogenphosphate 1.5 g/L, disodium hydrogenphosphate 12-hydrate 3.8 g/L, calcium chloride dihydrate 5.0 g/L, magnesium sulfate 7-hydrate 0.7 g/L, iron sulfate 7-hydrate 0.3 g/L, pH 7.2) was dispensed in 8 ml volumes into cotton-plugged test tubes having an inner diameter of 18 mm and sterilized in an autoclave at 121° C. for 15 minutes to prepare a test tube medium for seed culture.
Next, a medium of the following composition (glucose 30 g/L, filtered corn steep liquor 5 g/L, ammonium sulfate 1.5 g/L, potassium dihydrogenphosphate 1.5 g/L, disodium hydrogenphosphate 12-hydrate 3.8 g/L, calcium chloride dihydrate 5.0 g/L, magnesium sulfate 7-hydrate 0.7 g/L, iron sulfate 7-hydrate 0.6 g/L, ester-based defoaming agent 0.2 g/L) was dispensed in 8 ml volumes into cotton-plugged test tubes having an inner diameter of 18 mm (21 tubes in total).
The mediums in these test tubes were supplemented with 20 amino acids, glycine, alanine, valine, leucine, isoleucine, serine, threonine, aspartic acid, glutamic acid, asparagine, glutamine, lysine, arginine, cysteine, methionine, phenylalanine, tyrosine, tryptophan, histidine and proline, respectively, at 1.0 g/L. One of the tubes was supplemented with no amino acid as a control. Finally, the mediums in the tubes were adjusted to pH 7.1 with aqueous sodium hydroxide or aqueous sulfuric acid and then sterilized in an autoclave at 121° C. for 20 minutes.
Paracoccus carotinifaciens strain E-396 (FERM BP-4283) was inoculated into the test tube medium for seed culture and then cultured with shaking at 28° C. for 2 days at 300 spm. The resulting culture solution was then inoculated in 0.1 ml volumes into the 21 test tube media, respectively, and cultured with shaking at 28° C. for 4 days at 300 spm.
Each culture solution was measured for its carotenoid concentration by HPLC and microbial cell growth was determined by OD610 (absorbance at 610 nm).

As for `C[C@H](N)C(=O)O` [Alanine, alanine], the “effect on the production of carotenoid pigments” value (“effect on the production” for short) was “stimulatory effect”, the Astaxanthin was determined as 6.2 mg/L, the Total carotenoid is reported as 20.3 mg/L and the OD610 is listed as 13.
`N=C(N)NCCC[C@H](N)C(=O)O` [Arginine, arginine]: the “effect on the production” value is on record as “stimulatory effect”, the Astaxanthin was 5.1 mg/L, the Total carotenoid stood at 11.7 mg/L and the OD610 came out at 13.
On to `NC(=O)C[C@H](N)C(=O)O` [Asparagine, asparagine], for which the “effect on the production” value is listed as “stimulatory effect”, the Astaxanthin is reported as 8.1 mg/L, the Total carotenoid amounted to 24.2 mg/L and the OD610 worked out at 14.
Take `N[C@@H](CC(=O)O)C(=O)O` [Aspartic Acid, aspartic acid]: the “effect on the production” value was “stimulatory effect”, the Astaxanthin amounted to 9.4 mg/L, the Total carotenoid is recorded as 27.0 mg/L and the OD610 is on record as 18.
In the same order, the values of `N[C@@H](CS)C(=O)O` [Cysteine, cysteine] are “clear inhibitory effect”, 0.7 mg/L, 3.2 mg/L and 4.
In the same order, the values of `NC(=O)CC[C@H](N)C(=O)O` [Glutamine, glutamine] are “stimulatory effect”, 8.3 mg/L, 25.8 mg/L and 17.
Take `NCC(=O)O` [Glycine, glycine]: the “effect on the production” value is on record as “stimulatory effect”, the Astaxanthin worked out at 6.2 mg/L, the Total carotenoid came to 19.0 mg/L and the OD610 is reported as 18.
With `N[C@@H](Cc1c[nH]cn1)C(=O)O` [Histidine, histidine], the Astaxanthin is 3.3 mg/L, the Total carotenoid was found to be 8.1 mg/L and the OD610 amounted to 8.
Turning to `CC[C@H](C)[C@H](N)C(=O)O` [Isoleucine, isoleucine], the “effect on the production” value is “clear inhibitory effect”, the Astaxanthin came out at 1.3 mg/L, the Total carotenoid is given as 4.5 mg/L and the OD610 was determined as 6.
In the same order, the values of `CC(C)C[C@H](N)C(=O)O` [Leucine, leucine] are “stimulatory effect”, 4.7 mg/L, 10.1 mg/L and 11.
As for `NCCCC[C@H](N)C(=O)O` [Lysine, lysine], the “effect on the production” value is “clear inhibitory effect”, the Astaxanthin was found to be 1.1 mg/L, the Total carotenoid was 4.9 mg/L and the OD610 is recorded as 11.
Take `CSCC[C@H](N)C(=O)O` [Methionine, methionine]: the “effect on the production” value is on record as “clear inhibitory effect”, the Astaxanthin came to 1.4 mg/L, the Total carotenoid was found to be 5.0 mg/L and the OD610 is on record as 7.
Consider `N[C@@H](Cc1ccccc1)C(=O)O` [Phenylalanine, phenylalanine], for which the “effect on the production” value was “stimulatory effect”, the Astaxanthin amounted to 4.9 mg/L, the Total carotenoid amounted to 10.6 mg/L and the OD610 is reported as 10.
Regarding `O=C(O)[C@@H]1CCCN1` [Proline, proline], the “effect on the production” value was “stimulatory effect”, the Astaxanthin is 5.0 mg/L, the Total carotenoid amounted to 10.9 mg/L and the OD610 stood at 13.
Take `N[C@@H](CO)C(=O)O` [Serine, serine]: the “effect on the production” value is given as “stimulatory effect”, the Astaxanthin is recorded as 6.0 mg/L, the Total carotenoid is listed as 16.4 mg/L and the OD610 is on record as 13.
`C[C@@H](O)[C@H](N)C(=O)O` [Threonine, threonine]: the “effect on the production” value is “stimulatory effect”, the Astaxanthin is 5.2 mg/L, the Total carotenoid is 12.5 mg/L and the OD610 was found to be 8.
For `N[C@@H](Cc1c[nH]c2ccccc12)C(=O)O` [Tryptophan, tryptophan], the Astaxanthin was found to be 3.0 mg/L, the Total carotenoid was determined as 7.0 mg/L and the OD610 is 10.
With `N[C@@H](Cc1ccc(O)cc1)C(=O)O` [Tyrosine, tyrosine], the “effect on the production” value is on record as “stimulatory effect”, the Astaxanthin was determined as 5.0 mg/L, the Total carotenoid is listed as 11.3 mg/L and the OD610 came out at 12.
The molecule `CC(C)[C@H](N)C(=O)O` [Valine, valine] registered an Astaxanthin of 3.0 mg/L, a Total carotenoid of 9.2 mg/L and an OD610 of 10.
